Data taken from patent publication US5264372A (Amylin Pharmaceuticals, Inc., priority 1991, dated 1993).

Assays:
[1] = target: T1, ^125 I-h CGRP binding site (CGRP receptor) in rat liver membranes (Rattus norvegicus, UniProt Q63118+Q9JJ74); test: 125I-h CGRP binding to rat liver membranes (saturation and competition)
T1 construct: from tissue; host or cells: rat liver membranes
Method: Membranes were prepared from male Wistar or Sprague-Dawley rats (200-250 grams). Following decapitation, liver, soleus muscle and brain regions were removed to phosphate-buffered saline (PBS), pH 7.4 at 4° C. Tissues were weighed then placed in 5 ml/g tissue of ice-cold 20 mM HEPES buffer, pH 7.4, and homogenized with a Polytron at setting 4 for 10 seconds. An additional 30 ml of cold HEPES was added, and the homogenates centrifuged for 15 minutes at 48,000×g. After discarding the supernatant fluids, membrane pellets were homogenized in 40 ml of fresh HEPES buffer and centrifuged as before. Membranes were washed again by homogenization in buffer and centrifugation.
The final membrane pellet was resuspended in a volume of 20 mM HEPES buffer containing 0.2 mM PMSF added immediately before use from a stock 0.2 M solution in ethanol. A volume of buffer was used sufficient to yield a concentration of about 0 to about 20 mg original tissue/ml.
To 12×75 mm glass or polypropylene tubes were added 150 μl of HBBM buffer (20 mM HEPES buffer, pH 7.4, containing 1 mg/ml bacitracin, 1 mg/ml protease-free BSA Fraction V, 4 mM MgCl2) to which 0.2 mM PMSF was added just prior to use.
To this solution, 50 μl of unlabeled peptide diluted in HBBM buffer at concentrations of […] to 10^-6 M, were added. Control tubes contained HBBM alone. […] Incubations were begun by the addition of 250 μl of buffer containing membranes from 4 mg original weight of tissue, and continued for 60 minutes at room temperature (24° C.).
Suspensions were then filtered through GF/B glass fiber filters (previously soaked for 5 hours in 0.3% PEI) in a Brandel M-24 harvester. Filters were washed immediately before use with 5 ml of cold PBS, and immediately after filtration with 15 ml cold PBS. Filters were then counted in a gamma-counter.
The concentration of free ligand was derived by subtracting […] from total ligand added.
Scatchard and competition curve analysis was performed as described above.

[2] = Plasma glucose increment after i.v. peptide in fasted anesthetized rats; details: doses of 1 and 10 μg i.v.
[3] = target: ^125 I-CGRP binding in skeletal muscle crude membrane preparations; details: Chantry et al.; cited from earlier work
[4] = target: ^125 I-CGRP binding sites in membranes from rat cerebellum (Rattus norvegicus, UniProt Q63118+Q9JJ74)
Method: Binding assays were carried out as described in Example II.
Cerebellum membranes were also tested, as this area contains high densities of CGRP receptors but low to absent amounts of the variant CGRP receptor subtypes present in nucleus accumbens (Sexton et al., 1988).

[5] = target: ^125 I-h CGRP binding sites in nucleus accumbens and surrounding regions; test: Competition for 125I-h CGRP binding to nucleus accumbens area (basal forebrain) membranes; design: species or system rat
Description: From the ventral surface of rat brains, cuts were made rostral to the hypothalamus bounded laterally by the olfactory tracts and extending at a 45 angle medially from these tracts. This tissue, containing the nucleus accumbens and surrounding regions, was collected and weighed, and membranes prepared as described in Example I. The region from which tissue was collected as described above is here termed the basal forebrain, and includes the nucleus accumbens and surrounding regions.

[6] = system: insulin-stimulated glycogen synthesis in rat soleus muscle; test: Rat soleus muscle insulin-antagonism assay (inhibition of insulin-stimulated glycogen synthesis); assay type: cell-based; details: for IC50: insulin 1000 μU/ml, read-out: IC50 for inhibition of the stimulation of glycogen synthesis by insulin; for Agonist activity in words: amylin receptors in rat skeletal muscle
Method: The ability of insulin to stimulate glycogen synthesis in rat soleus muscle in vitro was measured as described by Leighton B. and Cooper, G. J. S., Nature 335:632-635 (1988), with the following modifications. Rats were unfed for 4 hours prior to sacrifice; muscles were not stretched on clips; bovine serum albumin (BSA) and HEPES were omitted from the assay medium; and, the insulin concentration used was 1000 μU/ml.

[7] = target: T2, calcitonin sites in brain and renal membranes (Homo sapiens, UniProt P30988); details: cited from earlier work
T2 construct: host or cells: brain and renal membranes
T2 sequence (P30988 25-474): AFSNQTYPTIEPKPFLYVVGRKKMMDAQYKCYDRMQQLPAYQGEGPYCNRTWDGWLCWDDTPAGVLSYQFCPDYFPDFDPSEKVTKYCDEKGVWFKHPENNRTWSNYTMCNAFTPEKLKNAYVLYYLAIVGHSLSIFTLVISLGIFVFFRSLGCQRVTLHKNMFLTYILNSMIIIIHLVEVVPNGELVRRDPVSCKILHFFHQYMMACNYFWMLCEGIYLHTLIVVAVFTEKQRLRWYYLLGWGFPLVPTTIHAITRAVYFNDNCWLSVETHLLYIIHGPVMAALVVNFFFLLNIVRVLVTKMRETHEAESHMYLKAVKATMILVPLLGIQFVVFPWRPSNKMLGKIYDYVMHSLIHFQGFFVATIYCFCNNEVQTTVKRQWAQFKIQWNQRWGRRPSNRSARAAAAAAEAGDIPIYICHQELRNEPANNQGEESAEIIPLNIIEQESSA

[8] = target: T3, CGRP binding sites (receptors) on liver membrane (Rattus norvegicus, UniProt Q63118+Q9JJ74); details: Morishita et al.; read-out: Affinity; cited from earlier work
T3 construct: host or cells: liver membranes; crude skeletal muscle membranes

[9] = system: rat soleus muscle membranes; test: Direct binding of labeled r amylin to rat soleus muscle membranes; details: by 1 μM unlabeled r amylin
Description: (§1) Control tubes contained HBBM alone.
(§2) Filters were then counted in a gamma-counter.

rat liver membranes = test: 125I-r amylin binding to rat liver membranes; details: 15 pM tracer; 1 μM h CGRP or 1 μM r amylin as displacing peptide
Description: as §1, §2

[10] = system: CGRP binding sites in cerebral cortex; details: human and rat cerebral cortex; cited from earlier work

T1 sequence (Q63118 24-464): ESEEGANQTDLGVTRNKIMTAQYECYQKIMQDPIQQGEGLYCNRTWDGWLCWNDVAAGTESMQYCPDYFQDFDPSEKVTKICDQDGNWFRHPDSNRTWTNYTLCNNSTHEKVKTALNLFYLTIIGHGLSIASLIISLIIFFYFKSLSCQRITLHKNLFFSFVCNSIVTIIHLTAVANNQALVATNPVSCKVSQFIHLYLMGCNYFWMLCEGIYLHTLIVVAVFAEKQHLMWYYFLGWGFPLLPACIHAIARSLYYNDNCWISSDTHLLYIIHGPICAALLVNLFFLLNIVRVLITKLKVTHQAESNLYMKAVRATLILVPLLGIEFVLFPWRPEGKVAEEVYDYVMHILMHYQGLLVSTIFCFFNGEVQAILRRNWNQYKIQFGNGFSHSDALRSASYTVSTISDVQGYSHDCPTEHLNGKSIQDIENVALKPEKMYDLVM
T1 sequence (Q9JJ74 27-148): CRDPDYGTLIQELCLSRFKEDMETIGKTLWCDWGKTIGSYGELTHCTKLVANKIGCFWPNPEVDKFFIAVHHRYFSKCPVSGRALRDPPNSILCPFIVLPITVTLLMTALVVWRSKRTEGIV
Sequence of ^125 I-CGRP binding sites in membranes from rat cerebellum (Q63118 24-464): as the sequence (Q63118 24-464) above
Sequence of ^125 I-CGRP binding sites in membranes from rat cerebellum (Q9JJ74 27-148): as the sequence (Q9JJ74 27-148) above
T3 sequence (Q63118 24-464): as the sequence (Q63118 24-464) above
T3 sequence (Q9JJ74 27-148): as the sequence (Q9JJ74 27-148) above

Question: What does the source list for `CC(C)C[C@H](NC(=O)CNC(=O)[C@H](C)NC(=O)[C@H](CC(C)C)NC(=O)[C@H](CCCNC(=N)N)NC(=O)[C@H](Cc1cnc(I)[nH]1)NC(=O)[C@@H](NC(=O)[C@@H](NC(=O)[C@@H]1CSSC[C@H](NC(=O)[C@H](C)N)C(=O)N[C@@H](CC(=O)O)C(=O)N[C@@H]([C@@H](C)O)C(=O)N[C@@H](C)C(=O)N[C@@H]([C@@H](C)O)C(=O)N1)C(C)C)[C@@H](C)O)C(=O)N[C@@H](CC(C)C)C(=O)N[C@@H](CO)C(=O)N[C@@H](CCCNC(=N)N)C(=O)N[C@@H](CO)C(=O)NCC(=O)NCC(=O)N[C@H](C(=O)N[C@H](C(=O)N[C@@H](CCCCN)C(=O)N[C@@H](CC(N)=O)C(=O)N[C@@H](CC(N)=O)C(=O)N[C@@H](Cc1ccccc1)C(=O)N[C@H](C(=O)N1CCC[C@H]1C(=O)N[C@H](C(=O)N[C@@H](CC(N)=O)C(=O)N[C@H](C(=O)NCC(=O)N[C@@H](CO)C(=O)N[C@@H](CCCCN)C(=O)N[C@@H](C)C(=O)N[C@@H](Cc1ccccc1)C(N)=O)C(C)C)[C@@H](C)O)C(C)C)C(C)C)C(C)C` [^125 I-h CGRP]?
Answer: Increase of binding to liver membranes in the presence of MgCl2 ([1]; 2 mM MgCl2): about 2.8 fold; Bmax ([1]; Scatchard analysis, rat liver membranes): 49.4 fmol/mg protein

Question: What does the source list for `CC(C)C[C@H](NC(=O)[C@H](CC(N)=O)NC(=O)[C@H](CC(N)=O)NC(=O)[C@H](CO)NC(=O)[C@H](CO)NC(=O)[C@H](CCCNC(=N)N)NC(=O)[C@@H](NC(=O)[C@H](CC(C)C)NC(=O)[C@H](Cc1ccccc1)NC(=O)[C@H](CC(N)=O)NC(=O)[C@H](C)NC(=O)[C@H](CC(C)C)NC(=O)[C@H](CCCNC(=N)N)NC(=O)[C@H](CCC(N)=O)NC(=O)[C@@H](NC(=O)[C@H](C)NC(=O)[C@@H]1CSSC[C@H](NC(=O)[C@@H](N)CCCCN)C(=O)N[C@@H](CC(N)=O)C(=O)N[C@@H]([C@@H](C)O)C(=O)N[C@@H](C)C(=O)N[C@@H]([C@@H](C)O)C(=O)N1)[C@@H](C)O)C(C)C)C(=O)NCC(=O)N1CCC[C@H]1C(=O)N[C@H](C(=O)N[C@@H](CC(C)C)C(=O)N1CCC[C@H]1C(=O)N1CCC[C@H]1C(=O)N[C@H](C(=O)N[C@@H](CC(N)=O)C(=O)N[C@H](C(=O)NCC(=O)N[C@@H](CO)C(=O)N[C@@H](CC(N)=O)C(=O)N[C@H](C(=O)N[C@@H](Cc1ccc(O)cc1)C(N)=O)[C@@H](C)O)C(C)C)[C@@H](C)O)C(C)C` [amylin]?
Answer: Hyperglycemic effect compared with CGRP [2]: more effective hyperglycemic agent; IC50 [3]: 10 nM

Question: What does the source list for `CC(C)C[C@H](NC(=O)[C@H](CC(N)=O)NC(=O)[C@H](CC(N)=O)NC(=O)[C@H](CO)NC(=O)[C@H](CO)NC(=O)[C@H](CCCNC(=N)N)NC(=O)[C@@H](NC(=O)[C@H](CC(C)C)NC(=O)[C@H](Cc1ccccc1)NC(=O)[C@H](CC(N)=O)NC(=O)[C@H](C)NC(=O)[C@H](CC(C)C)NC(=O)[C@H](CCCNC(=N)N)NC(=O)[C@H](CCC(N)=O)NC(=O)[C@@H](NC(=O)[C@H](C)NC(=O)[C@@H]1CSSC[C@H](NC(=O)[C@@H](N)CCCCN)C(=O)N[C@@H](CC(N)=O)C(=O)N[C@@H]([C@@H](C)O)C(=O)N[C@@H](C)C(=O)N[C@@H]([C@@H](C)O)C(=O)N1)[C@@H](C)O)C(C)C)C(=O)NCC(=O)N1CCC[C@H]1C(=O)N[C@H](C(=O)N[C@@H](CC(C)C)C(=O)N1CCC[C@H]1C(=O)N1CCC[C@H]1C(=O)N[C@H](C(=O)N[C@@H](CC(N)=O)C(=O)N[C@H](C(=O)NCC(=O)N[C@@H](CO)C(=O)N[C@@H](CC(N)=O)C(=O)N[C@H](C(=O)N[C@@H](Cc1ccc(O)cc1)C(N)=O)[C@@H](C)O)C(C)C)[C@@H](C)O)C(C)C` [r amylin, rat amylin]?
Answer: Hill Slope ([1]; competition against ^125 I-h CGRP, rat liver membranes): -0.67; Hill Slope [4]: -0.897; IC50 ([5]; Nucleus Accumbens Area, ^125 I-h CGRP tracer, r amylin 2 site fit): 5.89 nM; IC50 ([5]; high affinity site of biphasic inhibition): 0.026 nM; IC50 [6]: 8.3 ± 1.9 nM

Question: For CGRP, which “Potency relative to h CGRP8-37” value ([1]; liver membranes) is on record?
Answer: Its value is 4 times.

Question: And the “Potency relative to r amylin” value ([1]; liver membranes)?
Answer: The value was “about 200 fold”.

Question: What about the IC50 [3] of the same compound?
Answer: The IC50 was 0.3 nM.

Question: And the “Fold less potent in competing for calcitonin sites” value [7]?
Answer: The value was 500-1000 fold.

Question: What about the Ki [8] of the same compound?
Answer: Its Ki is roughly 0.009 nM.

Question: With “^125 I-r amylin: rat amylin Bolton-Hunter labeled with 125I at the N-terminal lysine, from Amersham” as the compound, how does the “Proportion of total binding displaceable” value [9] read?
Answer: The value was 15%.

Question: What about the “Specific binding to rat liver membranes” value (rat liver membranes) of the same compound?
Answer: The value was “No specific binding”.

Question: For calcitonin, which “Fold less potent than rat or human CGRP” value [10] is on record?
Answer: Its value is 500-1000 fold.

Question: For eel calcitonin, which “Agonist activity in words” value [6] is on record?
Answer: Its value is “potent agonists at amylin receptors”.

Question: What about the IC50 [6] of the same compound?
Answer: The IC50 was 0.4 nM.

Question: With salmon calcitonin as the compound, how does the “Agonist activity in words” value [6] read?
Answer: The value was “potent agonists at amylin receptors”.

Question: And the IC50 [6]?
Answer: Its IC50 is 0.38 nM.
